From US11833154B2, “Methods of treatment of myeloproliferative neoplasm” (priority 2017, dated 2023) come the findings set out here.

Assay [1] has as its system JAK2/IDH2-mutant MPN. Put plainly: Therapeutic assay: spleen weight, hematocrit and leukocyte count at sacrifice. The class given is in vivo, mice. Conditions: IDH2^R140Q JAK2^V617F bone marrow recipients, four weeks of treatment; vehicle mean 289.1. As to the method: (§1) Dissected femurs and tibias were isolated. Bone marrow was flushed into PBS+2% BSA or RPMI+10% FCS using a syringe or by centrifuge spin. Spleens were isolated and single cell suspensions made by mechanical disruption using glass slides. All harvested cells were passed through a […] strainer. Red blood cells (RBCs) were lysed in ammonium chloride-potassium bicarbonate lysis buffer for 10 min on ice. Cells were transplanted by via tail vein injection into lethally irradiated (2×550 Rad) CD45.1 host mice. For noncompetitive transplants, 1×10^6 total cells were transplanted; for competitive transplants including drug studies, 1×10^6 total donor cells were injected in a mixture with 1×10^6 cells from a congenic CD45.1 donor; for cell of origin transplants, injection number was determined based on the lowest yield after sort to inject approximately 100,000 MPP or 300 LT-HSC with 300,000 whole bone marrow cells from a CD45.1 donor.

Assay [2] concerns IDH2^R140Q JAK2^V617F MPN cells (CD45.2^+). Put plainly: Paired donor chimerism in peripheral blood before and after treatment. The assay is classed as in vivo, mice. Conditions: four weeks of treatment, vehicle +4.236. As for the experimental part:
as §1
(§2) Cells were stained with antibodies in FACS Buffer (2% Bovine Serum Albumin in phosphate-buffered saline (PBS)) for 30 min on ice. Donor and support chimerism was assessed using antibodies against CD45.1 (Clone A20, Biolegend) and CD45.2 (Clone 104, BioLegend).

Assay [3] has as its system JAK2/IDH2-mutant MPN. The assay is described as follows: Bone marrow stem and progenitor populations by FACS in treated recipients. The class given is in vivo, mice. Conditions: for Erythrocyte progenitors: Pre-erythrocytes / Pre-MegE populations / Erythrocyte progenitors: CFU-E / Erythrocyte progenitors: Pre-CFU-E: bone marrow FACS; for Erythrocyte progenitors: Pre-erythrocytes / Pre-MegE populations / Erythrocyte progenitors: CFU-E / Erythrocyte progenitors: Pre-CFU-E / Total LSK number in the bone marrow: four weeks of treatment; for Erythrocyte progenitors: Pre-erythrocytes / Pre-MegE populations: vehicle 0.1757; for Erythrocyte progenitors: CFU-E: vehicle 1.621; for Erythrocyte progenitors: Pre-CFU-E: vehicle mean 0.5189%; for Total LSK number in the bone marrow: double mutant mice, vehicle mean 57.19×10^3. As to the method: as §1, §2
Cells were also stained with antibodies specific to c-Kit/CD117 (clone 2B8, BioLegend), Sca-1 (clone D7, BioLegend), FcγRII/III/CD16/32 (clone 2.4G2, eBiosciences) and CD34 (clone RAM34, eBiosciences) or SLAM/CD150 (TC15-12F12.2, BioLegend) and CD48 (HM48-1, eBioscience). To assess mature cell lineages we used a combination of antibodies against Mac1, Gr-1, B220, CD3, cKit/CD117, CD45.1, and CD45.2.
To assess erythroid and megakaryocyte progenitors we stained unlysed tissues with a lineage cocktail including CD4, CD8, B220/CD45R, Mac1/CD11b, Gr-1, IL7R/CD127 (A7R34, BioLegend), CD49b (DX5, BioLegend). Antibodies were also used against c-Kit/CD117, Sca-1, SLAM/CD150, CD48, FcγRII/III/CD16/32, CD41 (eBioMWReg30, eBioscience), CD105 (MJ7/18, BioLegend), CD71 (RI7217, BioLegend), and Ter119 and gated as described by Pronk et al., Elucidation of the Phenotypic, Functional, and Molecular Topography of a Myeloerythroid Progenitor Cell Hierarchy, Cell Stem Cell 2007; 1:428-42.
A general note: A flow cytometer gives signals particle by particle.

Assay [4] deals with IDH2^R140Q JAK2^V61F mutant cells. The assay is described as follows: Serum 2HG levels in treated transplant recipient mice (LC-MS). The class given is in vivo. Conditions: mice engrafted with IDH2^R140Q JAK2^V617F cells; oral AG221 40-100 mg/kg, ruxolitinib 60 mg per kg, BID; at sacrifice after four weeks; vehicle mean 1874. As to the method:
as §1
2HG was extracted from serum using 80% aqueous methanol, as described by Lu et al., […]. […] All extracts were spun at 13,000 rpm at 4° C. to remove precipitate, dried at room temperature, and stored at −80° C.

Assay [5] relates to IDH2^R140Q JAK2^V617F mutant LSK. Put plainly: RNA-sequencing of donor-derived CD45.2 LSK from treated mice (GSEA). The assay is classed as in vivo. As for the experimental part: Before cell of origin transplants, sorting was performed on bone marrow with enrichment for cKit/CD117-positive cells using CD117 MicroBeads (Miltenyi). For expression analysis, sorting was performed on bone marrow that had been depleted of mature cells using Progenitor Cell Enrichment Kit ([…] Technologies).
CD45.2+ LSK cells were sorted into ice cold FACS Buffer, pelleted, and stored in Triazol until extraction of RNA using phenol-chlorophorm. The library was produced using SMARTer amplification (Clontech) amplify and create the library. Illumina sequencing was performed using Paired-End 50 bp at 40×10^6 reads per sample.

The subject of assay [6] is samples from patients with MPN and Post-MPN AML with IDH2^R140Q and JAK2^V617F mutations. The assay is described as follows: Human colony forming (methylcellulose) assay. The class given is cell-based. Conditions: Methocult H4435, 400 nM. As for the experimental part:
Approval was obtained from the Institutional Review Board at Memorial Sloan-Kettering Cancer Center. Tissues were collected in partnership with the Human Oncology Tissue Bank, and all patients provided informed consent. Fresh peripheral blood was collected into heparinized collection tubes, and separation of peripheral blood mononuclear cells (PBMC) was performed using hetastarch and a Ficoll gradient with subsequent red blood cell lysis.
(§3) Frozen or fresh PBMCs were plated in Methocult H4435 (Stem Cell) with penicillin and streptomycin in triplicate wells. MPN patient cells were plated after enrichment using CD34 Microbeads (Miltenyi) at 1,000 cells per well; AML patient cells were plated without enrichment at 100,000 cells per well.

In assay [7] the test system is JAK2/IDH2-mutant MPN cell metabolism. The assay is described as follows: LC/MS metabolite analysis of bone marrow aspirates from treated mice. The assay is classed as in vivo, mouse. As to the method:
External mass calibration was performed using the standard calibration mixture every 7 days. […] Buffer A was 20 mM ammonium carbonate, 0.1% ammonium hydroxide; buffer B was acetonitrile. […] The sheath gas flow was set to 40 units, the auxiliary gas flow was set to 15 units, and the sweep gas flow was set to 1 unit. […] Relative quantitation of polar metabolites was performed with XCalibur QuanBrowser 2.2 (Thermo Fisher Scientific) using a 5 ppm mass tolerance and referencing an in-house library of chemical standards.

The subject of assay [8] is JAK2/IDH2-mutant MPN/AML cells. The assay is described as follows: FACS of cell surface markers on cultured human colony cells. The class given is cell-based. The following applies: cultured patient cells, 400 nM. As to the method: as §3
To observe monocytic and granulocytic differentiation, antibodies against CD117/cKit, CD34, CD38, CD15 (HI98, eBioscience), CD14 (HCD14, BioLegend), and CD16 (3G8, BioLegend) were used.

Assay [9] relates to JAK2/IDH2 mutant MPN. Put plainly: Histology of bone marrow and spleen of treated recipients. The class given is in vivo, mice. As for the experimental part:
Pathology was obtained after fixation in 4% paraformaldehyde (PFA); blood smears and bone marrow cytospins were performed on the day of sacrifice. Sections were stained with hematoxylin and eosin stain or Wright Giemsa stain as appropriate. CD34+ staining was performed using CD34, Rat Monoclonal Antibody Performed on a Leica Bond™ RX using the Bond™ Polymer Refine Detection Kit (Cat. No. DS9800). The sections stained with CD34 (Abcam, Cat. Ab8158 diluted 1:50) were pre-treated using heat mediated antigen retrieval with Citrate, pH6 (Leica Biosystem Epitope Retrieval 1, Cat. No. AR9961) for 20 min. DAB was used as the chromogen, counterstained with hematoxylin and mounted.

Where [10] appears, read: CD45.2 LSK RNA-seq, GSEA, p<1e-4.
Setting [11] is: stem cells of treated mice versus wild type, Hallmark GSEA.

SMILES strings stand for the structures.

Turning to `N#CC[C@H](C1CCCC1)n1cc(-c2ncnc3[nH]ccc23)cn1` [ruxolitinib, reference compound], in assay [1], the “Splenomegaly: spleen weight (mean)” value is reported as 101.3 mg. Also, the “Mutant donor chimerism, mean change pre- and post-treatment” value in [2] is on record as “+3.256%”. In assay [3], the “Erythrocyte progenitors: Pre-erythrocytes” value came out at 0.08063, the Pre-MegE populations was 0.08063, the “Erythrocyte progenitors: CFU-E” value turned out to be 0.5553 and the “Erythrocyte progenitors: Pre-CFU-E” value was 0.1103%. Besides, the “Total LSK number in the bone marrow” value in assay [3] was 20.73×10^3. For the same molecule, the “Serum 2HG levels (mean)” value in assay [4] is listed as 1233 ng/mL. For the same molecule, in assay [5] (setting [10]), the “NES, downregulated genes of the combination-therapy signature also altered by monotherapy” value is reported as −2.2.

For `CC(C)(O)CNc1nc(Nc2ccnc(C(F)(F)F)c2)nc(-c2cccc(C(F)(F)F)n2)n1` [AG221, 2-methyl-1-[(4-[6-(trifluoromethyl)pyridin-2-yl]-6-{[2-(trifluoromethyl)pyridin-4-yl]amino}-1,3,5-triazin-2-yl)amino]propan-2-ol], the BFU-E colonies entry in assay [6] is listed as “presence of BFU-E colonies”. The “Colony number / colony output” value in [6] (DMSO controls) is “increase in colony number”. In [1], the “Splenomegaly: spleen weight (mean)” value is on record as 188.3 mg. The “Mutant donor chimerism, mean change pre- and post-treatment” value in [2] was −6.291%. Further, in assay [3], the “Erythrocyte progenitors: Pre-erythrocytes” value amounted to 0.03906, the Pre-MegE populations is 0.03906, the “Erythrocyte progenitors: CFU-E” value worked out at 0.8251 and the “Erythrocyte progenitors: Pre-CFU-E” value is recorded as 0.1913%. Besides, in [3], the “Total LSK number in the bone marrow” value was 36.43×10^3. The “Proportion of CD45.2 myeloid progenitor populations” value in assay [3] (donor-derived cells, number of CD45.1 myeloid progenitors not affected) is on record as “reduced”. In addition, the “Serum 2HG levels (mean)” value in [4] is on record as 744.4 ng/mL. In assay [5] (setting [10]), the “NES, downregulated genes of the combination-therapy signature also altered by monotherapy” value is −2.3 and the “NES, upregulated genes of the combination-therapy signature also reversed by monotherapy” value is “+1.9”. Also, in assay [5] (setting [11]), the “IL6/JAK/STAT3 gene expression signature” value is recorded as “enrichment for expression of genes in this pathway were seen”; the Interferon gamma signatures result is “significantly enriched”; the “Oncogenic signatures (cMYC, mTOR, KRAS)” value is “highly significant enrichment”. The “2HG levels in bone marrow aspirates” value in [7] (after 10 days of treatment) is recorded as “Reduction”. In addition, the “Levels of Kreb's cycle intermediates (α-ketoglutarate, citrate, succinate, fumarate, malate)” value in assay [7] (bone marrow aspirates, 10 days of treatment, p<0.0252) was “reduced”. Moreover, in assay [8], the “Differentiation markers CD235a / CD14” value is “upregulation” and the “Surface expression of immature marker cKit/CD117 / proportion of c-Kit positive colonies” value is given as “reduced”. The “Aberrant CD34 expression in megakaryocytes” value in assay [9] (CD34 immunohistochemical stain of bone marrow) was “resulted the aberrant CD34 expression seen in megakaryocytes”. Further, in [9] (histology, compared with untreated JAK2/IDH2 mutant MPN), the “Expansion of spleen blasts” value is “eliminated the expansion of spleen blasts”.
